In ChEMBL document CHEMBL4261613, “Discovery of a potent orally bioavailable retinoic acid receptor-related orphan receptor-gamma-t (RORγt) inhibitor, S18-000003” (Bioorg Med Chem Lett, 2018):
≈ marks a conversion by molar mass, not a printed value.

Columns and labels:
[1] = biological target: T1, Nuclear receptor ROR-gamma (Mus musculus, UniProt P51450); assay: (§1) Transrepression of recombinant mouse GAL4-DBD fused RORgammat LBD expressed in HEK293 cells after 20 hrs by luciferase reporter gene assay; format: cell-based
T1 sequence (P51450 whole entry): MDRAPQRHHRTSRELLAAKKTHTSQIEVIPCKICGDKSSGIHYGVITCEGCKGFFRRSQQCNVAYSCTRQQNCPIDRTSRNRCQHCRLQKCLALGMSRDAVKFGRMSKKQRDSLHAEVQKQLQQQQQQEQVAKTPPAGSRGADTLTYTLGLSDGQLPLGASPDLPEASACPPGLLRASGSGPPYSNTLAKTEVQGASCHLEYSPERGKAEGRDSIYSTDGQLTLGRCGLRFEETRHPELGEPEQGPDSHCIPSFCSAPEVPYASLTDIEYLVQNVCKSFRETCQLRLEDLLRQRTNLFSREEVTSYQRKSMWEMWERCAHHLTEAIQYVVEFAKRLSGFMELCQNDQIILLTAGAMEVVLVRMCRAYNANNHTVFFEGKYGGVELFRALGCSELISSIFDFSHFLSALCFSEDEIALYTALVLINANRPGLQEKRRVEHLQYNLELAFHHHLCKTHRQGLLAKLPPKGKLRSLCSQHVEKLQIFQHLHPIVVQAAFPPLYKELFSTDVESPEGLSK

[2] = biological target: T2, Nuclear receptor ROR-gamma (Mus musculus) (UniProt P51450); assay: as §1; format: cell-based
T2 sequence (whole entry): T1 sequence (P51450 whole entry)

[3] = biological target: T3, Nuclear receptor ROR-gamma (Homo sapiens, UniProt P51449); assay: Displacement of [3H]-Digoxin from recombinant human GST-fused RORgammat LBD after 1 to 4 hrs by scintillation counting method
T3 sequence (P51449 whole entry): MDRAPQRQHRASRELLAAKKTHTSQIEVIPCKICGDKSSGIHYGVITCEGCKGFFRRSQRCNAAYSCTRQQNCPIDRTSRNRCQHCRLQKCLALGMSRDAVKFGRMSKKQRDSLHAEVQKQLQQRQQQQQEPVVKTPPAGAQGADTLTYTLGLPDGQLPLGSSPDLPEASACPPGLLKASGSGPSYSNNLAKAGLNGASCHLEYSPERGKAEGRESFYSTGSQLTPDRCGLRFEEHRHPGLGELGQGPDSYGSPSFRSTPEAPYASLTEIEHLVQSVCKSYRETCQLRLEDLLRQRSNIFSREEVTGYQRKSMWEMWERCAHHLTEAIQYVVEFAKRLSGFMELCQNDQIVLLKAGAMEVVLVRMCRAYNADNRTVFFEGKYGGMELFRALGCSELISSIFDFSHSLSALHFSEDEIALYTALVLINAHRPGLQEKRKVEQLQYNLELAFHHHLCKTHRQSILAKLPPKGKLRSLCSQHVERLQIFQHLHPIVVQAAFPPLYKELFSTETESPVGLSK

[4] = biological target: T4, Nuclear receptor ROR-gamma (Homo sapiens) (UniProt P51449); assay: (§2) Transrepression of recombinant human GAL4-DBD fused RORgammat LBD expressed in HEK293 cells after 20 hrs by luciferase reporter gene assay; format: cell-based
T4 sequence (whole entry): T3 sequence (P51449 whole entry)

[5] = biological target: T3, Nuclear receptor ROR-gamma; assay: as §2; format: cell-based
[6] = Stability in human liver microsomes assessed as parent compound remaining after 2 hrs by LC-MS/MS analysis; format: ADME, microsome; details: read-out: Stability
[7] = Solubility of the compound in KH2PO4/Na2HPO4 buffer at pH 6.8 by shake-flask method; format: physicochemical
[8] = Solubility of the compound in NaCl/HCl buffer at pH 1.2 by shake-flask method; format: physicochemical
[9] = Stability in rat liver microsomes assessed as parent compound remaining after 2 hrs by LC-MS/MS analysis; format: ADME, microsome; details: read-out: Stability
[10] = biological target: T1, Nuclear receptor ROR-gamma; assay: Transrepression of RORgammat in anti-CD3/CD28 stimulated C57BL/6 mouse CD4-positive T cells assessed as suppression of T cell differentiation to Th17 cells by measuring reduction in IL-17A level after 4 days by ELISA

SMILES	IC50 [1]	Efficacy [2]	IC50 [3]	Efficacy [4]	IC50 [5]	remaining at 2 h [6]	solubility thermodynamic [7]	solubility thermodynamic [8]	remaining at 2 h [9]	IC50 [10]
CCS(=O)(=O)c1ccc(CC(=O)Nc2ccc(C(C)(C)C(=O)N3CCCCC3)cc2)cc1	> 10000 nM	50%	36 nM	91%	430 nM					
CCS(=O)(=O)c1ccc(CC(=O)Nc2ccc(C(C)(C)C(=O)N(C)C)cc2)cc1	> 10000 nM	51%	30 nM	89%	370 nM					
CCS(=O)(=O)c1ccc(CC(=O)Nc2ccc(C(C)(C)C(=O)Nc3ccncc3)cc2)cc1	> 10000 nM	47%		87%	1800 nM	4.3%	> 50 µM	> 50 µM	25%	
CCOC(=O)C(C)(C)c1ccc(NC(=O)Cc2ccc(S(=O)(=O)CC)cc2)cc1	3100 nM	77%	64 nM	93%	400 nM					
CCS(=O)(=O)c1ccc(CC(=O)Nc2ccc(C(C)(C)C(=O)Nc3ncccc3F)cc2)cc1	> 10000 nM	37%		92%	310 nM	93%	> 50 µM	> 50 µM	80%	
CCS(=O)(=O)c1ccc(CC(=O)Nc2ccc(C(C)(C)C(=O)Nc3cccc(C(F)(F)F)n3)cc2)cc1	5400 nM	66%		90%	500 nM	74%	0.6 µM (≈ 0.32 µg/mL)	1.1 µM (≈ 0.587 µg/mL)	71%	
CCS(=O)(=O)c1ccc(CC(=O)Nc2ccc(C(C)(C)C(=O)Nc3ccc(F)cc3F)cc2)cc1	1800 nM	73%		91%	95 nM	97%			73%	1300 nM
CCS(=O)(=O)c1ccc(CC(=O)Nc2ccc(C(C)(C)C(=O)Nc3ccccn3)cc2)cc1	1300 nM	73%		93%	40 nM	60%	> 50 µM	> 50 µM	36%	
CCS(=O)(=O)c1ccc(CC(=O)Nc2ccc(C(C)(C)C(=O)N3CCC3)cc2)cc1	> 10000 nM	52%	< 30 nM	90%	180 nM					
CCS(=O)(=O)c1ccc(CC(=O)Nc2ccc(C(C)(C)C(=O)Nc3ccccc3C)cc2)cc1	6800 nM	57%		93%	140 nM	24%			6%	
CCS(=O)(=O)c1ccc(CC(=O)Nc2ccc(C(C)(C)C(=O)N3Cc4ccccc4C3)cc2)cc1	1900 nM	84%	< 30 nM	92%	260 nM					
CCS(=O)(=O)c1ccc(CC(=O)Nc2ccc(C(C)(C)C(=O)N3CC4(CCC4)C3)cc2)cc1	10000 nM	55%	33 nM	89%	470 nM					
CCS(=O)(=O)c1ccc(CC(=O)Nc2ccc(C(C)(C)C(=O)Nc3cccnc3)cc2)cc1	4500 nM	63%		93%	150 nM					

These reach a lower IC50 [1]. Values come first.

IC50 [1]	Efficacy [2]	IC50 [3]	Efficacy [4]	IC50 [5]	remaining at 2 h [6]	solubility thermodynamic [7]	solubility thermodynamic [8]	remaining at 2 h [9]	IC50 [10]	SMILES
330 nM	76%	< 30 nM	93%	14 nM						CCS(=O)(=O)c1ccc(CC(=O)Nc2ccc(C(C)(C)C(=O)N(C)c3ccccc3)cc2)cc1
320 nM	86%		94%	31 nM	69%	> 50 µM	> 50 µM	47%		CCS(=O)(=O)c1ccc(CC(=O)Nc2ccc(C(C)(C)C(=O)Nc3cc(F)ccn3)cc2)cc1
110 nM	87%	< 30 nM	93%	10 nM						CCS(=O)(=O)c1ccc(CC(=O)Nc2ccc(C(C)(C)C(=O)N3CCc4ccccc43)cc2)cc1
290 nM	91%		97%	40 nM	92%	25 µM (≈ 12.3 µg/mL)	47 µM (≈ 23.1 µg/mL)	72%		CCS(=O)(=O)c1ccc(CC(=O)Nc2ccc(C(C)(C)C(=O)Nc3cc(C#N)ccn3)cc2)cc1
470 nM	69%	< 30 nM	93%	14 nM	8.5%	26.6 µM (≈ 12.4 µg/mL)	46.9 µM (≈ 21.8 µg/mL)	30%	480 nM	CCS(=O)(=O)c1ccc(CC(=O)Nc2ccc(C(C)(C)C(=O)Nc3ccccc3)cc2)cc1
260 nM	84%		94%	9.8 nM	2.7%			24%	290 nM	CCS(=O)(=O)c1ccc(CC(=O)Nc2ccc(C(C)(C)C(=O)Nc3cccc(F)c3)cc2)cc1
100 nM	76%		93%	4.4 nM	67%			19%	100 nM	CCS(=O)(=O)c1ccc(CC(=O)Nc2ccc(C(C)(C)C(=O)Nc3ccccc3F)cc2)cc1
100 nM	86%		95%	8.2 nM	40%	4.7 µM (≈ 2.35 µg/mL)	> 50 µM	8.1%		CCS(=O)(=O)c1ccc(CC(=O)Nc2ccc(C(C)(C)C(=O)Nc3cc(Cl)ccn3)cc2)cc1
78 nM	94%		94%	25 nM	36%	0.5 µM (≈ 0.267 µg/mL)	26 µM (≈ 13.9 µg/mL)	23%		CCS(=O)(=O)c1ccc(CC(=O)Nc2ccc(C(C)(C)C(=O)Nc3cc(C(F)(F)F)ccn3)cc2)cc1
